Where “and” joins values, the source holds several entries; their conditions need not be identical. Equal values may be shown once. Where a name gives a salt, the structure may show the parent alone. Read-outs that look alike come from different tables or passages of the source. Blank lines part the entries; values can stand above or below the molecule they belong to.
Tests used:
[1] = target: recombinant human His-tagged MDM2 protein (residues 1-118) (Homo sapiens (Human), UniProt Q00987); test: Fluorescence-polarization MDM2 binding assay (Example 2); settings: Table 2A; no unit in the cell (μM unless otherwise indicated)
recombinant human His-tagged MDM2 protein (residues 1-118), sequence (Q00987 1-118): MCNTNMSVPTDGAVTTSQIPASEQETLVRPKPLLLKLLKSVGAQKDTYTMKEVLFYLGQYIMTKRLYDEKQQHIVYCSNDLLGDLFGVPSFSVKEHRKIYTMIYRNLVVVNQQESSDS

HCT-116 (p53—/—) = test: Cell growth assay (WST-8); type: cell-based; settings: Homo sapiens, HCT-116, 96 h, read-out: IC50 HCT-116 (p53—/—)
PC-3 (deleted p53) = test: Cell growth assay (WST-8); type: cell-based
LNCAP (p53 wild-type) = test: Cell growth assay (WST-8); type: cell-based, human
SJSA-1 (p53 wild-type) = test: Cell growth assay (WST-8); type: cell-based
HCT-116 (p53 wild-type) = test: Cell growth assay (WST-8); type: cell-based, human
RS4; 11 (p53 wt) [2] = test: cells; settings: Homo sapiens, RS4-11, 96 h, read-out: RS4, 11 (p53 wt) IC50 (μM)
[3] = system: prostate cancer cell line 22Rv1; test: Growth inhibition assay (Celltiter-Glo), 22Rv1; type: cell-based; settings: Homo sapiens, read-out: IC50 growth inhibition
H1299 = test: Anti-proliferative ATP assay; type: cell-based; settings: Homo sapiens, NCI-H1299, lung, p53 —/—
Y79 = test: Anti-proliferative ATP assay; type: cell-based; settings: Homo sapiens, retinoblastome, p53 WT/WT, Rb mutated
Capan2 = test: Anti-proliferative ATP assay; type: cell-based; settings: Homo sapiens, Capan-2, pancreas, p53 —/—
[4] = system: SJSA-1 (osteosarcoma) tumors; test: In vivo efficacy, SJSA-1 xenograft model; set-up: species or system mice; settings: single 200 mg/kg dose (QD1 treatment) versus QD7 treatment; FIG. 22
Experimental: A cell sample was mixed 1:1 with Trypan Blue (GIBCO™, Invitrogen Corp.) and counted on a hemocytometer to determine the number of live/dead cells. Cells were washed once with 1×PBS (GIBCO™, Invitrogen Corp.) and resuspended in PBS. […] Cells were injected s.c. into the flank region of each mouse using a 27 gauge needle. The size of tumors growing in the mice was measured in two dimensions using calipers. Tumor volume (mm^3)=(A×B^2)/2 where A and B are the tumor length and width (in mm), respectively. During treatment, tumor volume and body weight was measured three times a week. After the treatment was stopped, tumor volume (FIGS. 17, 20, 22, and 23) and body weight (FIGS. 18 and 21) was measured at least once a week. Mice were kept for an additional 60 days for further observation of tumor growth and toxicity. […] Before treatment began, tumors were allowed to grow to 60-140 mm^3 in volume, at which point the blood vessel supplies to the tumor should have been established. […] The Control group received vehicle alone (10% PEG 400:3% Cremophor:87% PBS).

H929 = test: Anti-proliferative ATP assay; type: cell-based; settings: Homo sapiens, NCI-H929, MM, p53 WT/WT
HCT116 = test: Anti-proliferative ATP assay; type: cell-based; settings: Homo sapiens, HCT-116, colon, p53 WT/WT
DoHH2 = test: Anti-proliferative ATP assay; type: cell-based; settings: Homo sapiens, DOHH-2, GCB-DLBCL, p53 WT/WT, BCL2 overexpression
SR = test: Anti-proliferative ATP assay; type: cell-based; settings: Homo sapiens, lymphoma, p53 WT/WT
RS4; 11 = test: Anti-proliferative ATP assay; type: cell-based; settings: Homo sapiens, ALL, p53 WT/WT
MKN45 = test: Anti-proliferative ATP assay; type: cell-based; settings: Homo sapiens, MKN-45, gastric, p53 WT/WT, Met amplified
MV4; 11 = test: Anti-proliferative ATP assay; type: cell-based; settings: Homo sapiens, AML, p53 WT/WT, FLT3-ITD
Hs746T = test: Anti-proliferative ATP assay; type: cell-based; settings: Homo sapiens, gastric, Met amplified
SJSA1 = test: Anti-proliferative ATP assay; type: cell-based; settings: Homo sapiens, SJSA-1, bone, p53 WT/WT, MDM2 amplified
LY3 = test: Anti-proliferative ATP assay; type: cell-based; settings: ABC-DLBCL, p53 WT/WT
U2OS = test: Anti-proliferative ATP assay; type: cell-based; settings: Homo sapiens, bone, p53 WT/WT
Ly7 = test: Anti-proliferative ATP assay; type: cell-based; settings: GCB-DLBCL, p53 WT/MUT
Rec1 = test: Anti-proliferative ATP assay; type: cell-based; settings: Homo sapiens, MCL, p53 WT/WT
MCF7 = test: Anti-proliferative ATP assay; type: cell-based; settings: Homo sapiens, breast, p53 WT/WT
JAR = test: Anti-proliferative ATP assay; type: cell-based; settings: placenta, p53 WT/WT, MDM2 amplified
Ku812 = test: Anti-proliferative ATP assay; type: cell-based; settings: Homo sapiens, CML-BC, p53 WT/WT
EHEB = test: Anti-proliferative ATP assay; type: cell-based; settings: CLL, p53 WT/WT
LnCap = test: Anti-proliferative ATP assay; type: cell-based; settings: Homo sapiens, prostate, p53 WT/WT
CCF-STTG1 = test: Anti-proliferative ATP assay; type: cell-based; settings: Homo sapiens, CNS, p53 WT/WT, MDM2 amplified
SNU-1 = test: Anti-proliferative ATP assay; type: cell-based; settings: Homo sapiens, SNU1, gastric, p53 WT/WT, KRAS mut
SNU-5 = test: Anti-proliferative ATP assay; type: cell-based; settings: Homo sapiens, gastric, Met amplified
RKO = test: Anti-proliferative ATP assay; type: cell-based; settings: Homo sapiens, colon, p53 WT/WT
RS4; 11 (p53 wt) [5] = settings: read-out: RS4, Four day treatment
Ly10 = test: Anti-proliferative ATP assay; type: cell-based; settings: ABC-DLBCL, p53 WT/WT
MOLM13 = test: Anti-proliferative ATP assay; type: cell-based; settings: Homo sapiens, MOLM-13, AML, p53 WT/WT, FLT3-ITD
Experimental: The anti-proliferative IC50 was determined by ATP assay.

22RV1 = test: Anti-proliferative ATP assay; type: cell-based; settings: Homo sapiens, prostate, p53 WT/MUT
[6] = 96 h, read-out: IC50 PC-3 (deleted p53)
[7] = Homo sapiens, LNCaP, 96 h, read-out: IC50 LNCAP (p53 wild-type)
[8] = Homo sapiens, SJSA-1, 96 h, read-out: IC50 SJSA-1 (p53 wild-type)
[9] = Homo sapiens, HCT-116, 96 h, read-out: IC50 HCT-116 (p53 wild-type)
[10] = Homo sapiens, LNCaP, read-out: IC50 LNCAP (p53 wild-type)
[11] = Homo sapiens, SJSA-1, read-out: IC50 SJSA-1 (p53 wild-type)
[12] = Homo sapiens, HCT-116, read-out: IC50 HCT-116 (p53 wild-type)

- IC50 [1]: < 0.1 µM
SMILES: CCN1[C@@H](CC(C)(C)C)[C@@]2(C(=O)Nc3cc(Cl)ccc32)[C@@H](c2cccc(Cl)c2F)[C@@H]1C(=O)N[C@H]1C[C@@](C)(O)C1 [C29701]

- IC50 [1]: < 0.1 µM
SMILES: CN1[C@@H](CC(C)(C)C)[C@@]2(C(=O)Nc3cc(Cl)ccc32)[C@@H](c2cccc(Cl)c2F)[C@@H]1C(=O)N[C@H]1C[C@@](C)(O)C1 [C30201]

SMILES: CC(C)(C)C[C@H]1N[C@@H](C(=O)N[C@H]2C[C@@](C)(O)C2)[C@H](c2cccc(Cl)c2F)[C@@]12C(=O)Nc1cc(Cl)ccc12 [MI-519-64]
- IC50 (HCT-116 (p53—/—)): 13700 nM
- IC50 (PC-3 (deleted p53); [6]): 6100 nM
- IC50 (LNCAP (p53 wild-type); [7]): 500 nM
- IC50 (SJSA-1 (p53 wild-type); [8]): 270 nM
- IC50 (HCT-116 (p53 wild-type); [9]): 180 nM

SMILES: CC(C)(C)C[C@H]1N[C@@H](C(=O)N[C@H]2C[C@](C)(O)C2)[C@H](c2cccc(Cl)c2F)[C@@]12C(=O)Nc1cc(Cl)ccc12 [MI-519-65]
- IC50 (LNCAP (p53 wild-type); [10]): < 3000 nM
- IC50 (SJSA-1 (p53 wild-type); [11]): < 3000 nM
- IC50 (HCT-116 (p53 wild-type); [12]): < 3000 nM

SMILES: CC(C)(C)C[C@@H]1N[C@@H](C(=O)N[C@H]2C[C@@](C)(O)C2)[C@H](c2cccc(Cl)c2F)[C@]12C(=O)Nc1cc(Cl)ccc12 [MI-519-6401]
- IC50 (RS4; 11 (p53 wt) [2]): 0.13 ± 0.02 µM
- IC50 (HCT-116 (p53—/—)): 12200 nM
- IC50 (PC-3 (deleted p53); [6]): 10500 nM
- IC50 (LNCAP (p53 wild-type); [7]): 330 nM
- IC50 (SJSA-1 (p53 wild-type); [8]): 400 nM
- IC50 (HCT-116 (p53 wild-type); [9]): 102 nM
- IC50 ([3]; 22Rv1, 96 h): 100 to 500 nM

- IC50 (RS4; 11 (p53 wt) [2]; Four day treatment): 0.13 µM
- IC50 (PC-3 (deleted p53); read-out: IC50 PC-3 (deleted p53)): 14700 nM
- IC50 (LNCAP (p53 wild-type); [10]): 85 nM
- IC50 (SJSA-1 (p53 wild-type); [11]): 61 nM
- IC50 (HCT-116 (p53 wild-type); [12]): 58 nM
SMILES: CC(C)(C)C[C@H]1N[C@@H](C(=O)NC2CCC(O)CC2)[C@H](c2cccc(Cl)c2F)[C@@]12C(=O)Nc1cc(Cl)ccc12 (some centres unmarked) [MI-773]

SMILES: CC(C)(C)C[C@@H]1N[C@@H](C(=O)NC2CCC(O)CC2)[C@H](c2cccc(Cl)c2F)[C@]12C(=O)Nc1cc(Cl)ccc12 (some centres unmarked) [MI-77301 (TFA salt)]
- IC50 (RS4; 11 (p53 wt) [2]; Four day treatment): 0.059 ± 0.025 µM
- IC50 (PC-3 (deleted p53); read-out: IC50 PC-3 (deleted p53), Four day treatment): 13000 ± 3000 nM
- IC50 (LNCAP (p53 wild-type); read-out: IC50 LNCAP (p53 wild-type), Four day treatment): 86 ± 16 nM
- IC50 (SJSA-1 (p53 wild-type); read-out: IC50 SJSA-1 (p53 wild-type), Four day treatment): 83 nM and 75 nM
- IC50 (HCT-116 (p53 wild-type); read-out: IC50 HCT-116 (p53 wild-type), Four day treatment): 48 ± 14 nM

SMILES: CC(C)(C)C[C@@H]1N[C@@H](C(=O)NC2CCC(O)CC2)[C@H](c2cccc(Cl)c2F)[C@]12C(=O)Nc1cc(Cl)ccc12 (some centres unmarked) [MI-77301 (free amine)]
- IC50 (H1299): > 10000 nM
- IC50 (Y79): 430 nM
- IC50 (PC-3 (deleted p53); 96 h, read-out: IC50 PC-3 (deleted p53), Four day treatment): 8450 ± 350 nM
- IC50 (LNCAP (p53 wild-type); Homo sapiens, LNCaP, 96 h, read-out: IC50 LNCAP (p53 wild-type), Four day treatment): 54 ± 8 nM
- IC50 (Capan2): > 10000 nM
- antitumor efficacy (tumor volume) [4]: comparable efficacy to a continuous dosing regimen
- IC50 (H929): 114 nM
- IC50 (HCT116): 229 nM
- IC50 (DoHH2): 39.3 nM
- IC50 (SR): 14.9 nM
- IC50 (SJSA-1 (p53 wild-type); Homo sapiens, SJSA-1, 96 h, read-out: IC50 SJSA-1 (p53 wild-type), Four day treatment): 58 ± 23 nM
- IC50 (RS4; 11): 28 nM
- IC50 (MKN45): > 10000 nM
- IC50 (MV4; 11): 45.4 nM
- IC50 (Hs746T): 10000 nM
- IC50 (SJSA1): 145 nM
- IC50 (LY3): 280 nM
- IC50 (U2OS): > 10000 nM
- IC50 (Ly7): > 10000 nM
- IC50 (Rec1): 738 nM
- IC50 (MCF7): 201 nM
- IC50 (JAR): 169 nM
- IC50 (HCT-116 (p53 wild-type); Homo sapiens, HCT-116, 96 h, read-out: IC50 HCT-116 (p53 wild-type), Four day treatment): 33 ± 10 nM
- IC50 (Ku812): > 10000 nM
- IC50 (EHEB): 70 nM
- IC50 (LnCap): 50 nM
- IC50 (CCF-STTG1): 162 nM
- IC50 (SNU-1): 77 nM
- IC50 (SNU-5): > 10000 nM
- IC50 (RKO): 480 nM
- IC50 (RS4; 11 (p53 wt) [5]): 102 nM and 81 nM
- IC50 (Ly10): 90 nM
- IC50 ([3]; 22Rv1, 96 h, 96-well format): 100 to 500 nM
- IC50 (MOLM13): 14.7 nM
- IC50 (22RV1): 399 nM
